Two compounds from patent publication US5212326A, “Sodium hydrogen divalproate oligomer” (Abbott Laboratories, priority 1991, dated 1993) can be followed below.

Each structure is given as a SMILES string.

Common to all, as to format: in vivo
Data set [1] can be described thus: Bioavailability study, blood plasma levels and AUC in dog. The note with it: po, 25 mg/kg, equimolar doses. On the procedure:
(§1) In a bioavailability study carried out with (A) and (C) above in various animal species, the peak blood plasma levels of oral, equimolar doses are determined according to standard procedures, 30 minutes after drug administration.
*Area under the curve value for 0-7 hours.

Data set [2] in a line: Bioavailability study, blood plasma levels in mouse. The following applies: po, 200 mg/kg, equimolar doses, 30 minutes after administration, read-out: peak blood plasma levels. The procedure: as §1
Data set [3] deals with Pentylenetetrazole seizures. The data set can be described thus: Anticonvulsant activity, pentylenetetrazole seizures in mice (oral ED50). The following applies: based on equimolar valproic acid equivalents. From the text:
(§2) In a comparison of anticonvulsant activities of
(§3) the oral ED50 based on equimolar valproic acid equivalents are established by standard procedures.

Data set [4] is described as follows: Bioavailability study, blood plasma levels in rat. The following applies: po, 200 mg/kg, equimolar doses, 30 minutes after administration, read-out: peak blood plasma levels. The procedure: as §1
Data set [5] deals with Pentylenetetrazole seizures. The data set can be described thus: Anticonvulsant activity, pentylenetetrazole seizures in rats (oral ED50). The note with it: Rattus norvegicus, based on equimolar valproic acid equivalents.
Source text: as §2, §3

Regarding `CCCC(CCC)C(=O)O` [A, 2-propylpentanoic acid], the AUC at 7 h in data set [1] (0-7 hours, read-out: AUC (Area under the curve value for 0-7 hours)) came to 82300 ng·h/mL. Moreover, the Cmax at 0.5 h in data set [1] (30 minutes after administration, read-out: peak blood plasma levels) is 65200 ng/g; in data set [2] it was 134000 ng/g; in data set [4] it was 84100 ng/g. Also, the “oral ED50, Pentylenetetrazole seizures (mice)” value in data set [3] was below 800 mg/kg. In data set [5], the ED50 came to 355 mg/kg.

Consider `CCCC(CCC)C(=O)[O-].[Na+]` [B, sodium valproate], for which the ED50 turned out to be 282 mg/kg in data set [3] (Mus musculus, po) and 415 mg/kg in data set [5].
